Results as given in paper PMC3706879, “The neurotrophic compound J147 reverses cognitive impairment in aged Alzheimer's disease mice” (Alzheimer's Research & Therapy, 2013).
Where “and” joins values, the source holds several entries; their conditions need not be identical. Equal values may be shown once. Entries after “also recorded” stand apart in the source; their conditions may differ.

Key:
[1] = target: CYP450 3A4 (Homo sapiens, UniProt P08684)
[2] = tested on: APP/swePS1ΔE9 mice; design: method as in PMID 22194796; details: cited from earlier work
[3] = tested on: huAPP/PS1 mice; test: two-day water maze in aged huAPP/PS1 mice; assay type: in vivo; details: 200 ppm in food for three months, vs AD control
Procedure: (§1) The APPswe/PS1ΔE9 transgenic mice have been previously characterized. The line 85 mice carry two transgenes, the mouse/human chimeric APP/Swe, linked to Swedish FAD and human PS1ΔE9. At 20 months of age both male and female transgenic mice were fed a high fat diet (Harlan Tekland, Madison, WI, USA) with and without J147 (200 ppm, 10 mg/kg/day). Treatment continued for three months and was followed by behavior testing and sacrifice of mice for tissue harvesting. […] (Data not shown).
Spatial memory was determined using the two-day water maze in 23-month-old huAPPswe/PS1 transgenic mice fed J147 at 200 ppm in food for the previous three months. The protocol was adapted from a publication by Gulinello and colleagues. Water temperature remained at 27°C throughout the experiment. The goal platform was positioned 45 cm from the outside wall in the north-west quadrant of the maze for all groups and all trials. Day 1 of the two-day water maze procedure involved training the mice to find the platform using cues located around the pool within a 180 s time frame. […] The time it took each mouse to find the hidden platform was measured as escape latency. […] All trials were recorded using the EthoVision Software and statistics were computed using GraphPad Instat software (GraphPad Software, San Diego, CA, USA).

[4] = tested on: mice; test: acute toxicity in mice (Absorption Systems); assay type: in vivo; details: 2 g/kg, oral, maximum testable dose
[5] = tested on: C57BL/6J mice; test: two-day water maze, scopolamine induced memory impairment; assay type: in vivo; details: scopolamine 1 mg/kg i.p.; J147 200 ppm, donepezil 20 ppm in food for two weeks
Procedure: A total of 60 male mice aged eight weeks were housed 4 per cage and were divided into five groups with 12 mice per group. Treatments were administered in the food (TestDiet® 5015, Richmond, IN, USA) for a period of two weeks before commencement of behavioral testing. […] Following two weeks of treatment, memory impairment was induced by intraperitoneal (i.p.) injection of scopolamine (1 mg/kg) 30 minutes prior to each of the following behavioral tests: Y-maze, probe trial of the water maze and contextual and cued fear conditioning. Mice were allowed to rest for two days between each behavior test. All mice received scopolamine except for one of the control groups, which received saline as a control. Mice were sacrificed 24 hours after the last behavioral test for tissue harvesting.
Spatial memory was determined using the two-day water maze in 23-month-old huAPPswe/PS1 transgenic mice fed J147 at 200 ppm in food for the previous three months. The protocol was adapted from a publication by Gulinello and colleagues. Water temperature remained at 27°C throughout the experiment. […] The time it took each mouse to find the hidden platform was measured as escape latency. […] All trials were recorded using the EthoVision Software and statistics were computed using GraphPad Instat software (GraphPad Software, San Diego, CA, USA).

[6] = tested on: HT22 cells; details: 10 μM J147, one hour
Procedure: HT22 cells were plated in DMEM plus 10% FCS. The next day, the cells were treated with 10 μM J147 for 1 hr before RNA isolation.
RNA was isolated with the use of RNeasy Mini kit (Qiagen, #74104; Valencia, CA, USA) according to the manufacturer's instructions. Total RNA was quantified using the ND-1000 Nanodrop and assessed for quality using the ratios: A260/280 (range: 1.9 to 2.1) and A260/230 (range: 2.0 to 2.2, if <2.0, contamination), in addition to the Bioanalyzer (Agilent Technologies, Cedar Creek, TX, USA) if further quality assessment was required.
After RNA isolation for each sample, double stranded cDNA was synthesized from 500 ng total RNA and biotin-labeled using the GeneChip 3' IVT Express Kit (Affymetrix, Santa Clara, CA, USA, #901228-A) per the manufacturer's instructions and protocol. RNA was purified, quantified, fragmented randomly to an average size of 50 to 200 bases and hybridized to GeneChip® Mouse Genome 430 2.0 Arrays (Affymetrix,) consisting of over 45,000 probe sets representing more than 34,000 named mouse genes. The hybridization and processing of the GeneChips were conducted by Salk Institute's Functional Genomics Core Facility using the following systems from Affymetrix (Santa Clara, CA, USA): GeneChip® Hybridization Oven 640, GeneChip® Fluidics Station 450 to the wash and stain operation of Affymetrix GeneChip® arrays, and the GeneChip® Scanner 3000 7G.
Affymetrix Expression Console Software (version 1.0) was used to perform quality assessment of the microarray scan/experiments. Array data were normalized via scaling to adjust the average intensity of each array to be similar. GeneChips were analyzed by the GeneChip Operating Software (Affymetrix) with the default settings except that the target signal was set to 200 for GeneChip quality control. Raw data were analyzed through the gcRMA-algorithm using the Affymetrix package in R software for statistical computing and graphics. The median microarray intensity for all microarrays was normalized to 100, and probe sets with median intensities >100 were scored. Fold changes were calculated in Microsoft Excel Microsoft, Redmond, Washington, USA). Genes of interest and genes with the highest fold-changes were validated using Real-Time Quantitative PCR. The data discussed in this publication have been deposited in NCBI's Gene Expression Omnibus and are accessible through GEO Series accession number GSE45534 [26].

[7] = body weights and food consumption of aged APPswe/PS1ΔE9 mice; assay type: in vivo; details: 20-month-old APPswe/PS1ΔE9 mice, 200 ppm (10 mg/kg/day) in food, three months, measured weekly
Procedure: as §1

Chain of CYP450 3A4 (P08684 whole entry): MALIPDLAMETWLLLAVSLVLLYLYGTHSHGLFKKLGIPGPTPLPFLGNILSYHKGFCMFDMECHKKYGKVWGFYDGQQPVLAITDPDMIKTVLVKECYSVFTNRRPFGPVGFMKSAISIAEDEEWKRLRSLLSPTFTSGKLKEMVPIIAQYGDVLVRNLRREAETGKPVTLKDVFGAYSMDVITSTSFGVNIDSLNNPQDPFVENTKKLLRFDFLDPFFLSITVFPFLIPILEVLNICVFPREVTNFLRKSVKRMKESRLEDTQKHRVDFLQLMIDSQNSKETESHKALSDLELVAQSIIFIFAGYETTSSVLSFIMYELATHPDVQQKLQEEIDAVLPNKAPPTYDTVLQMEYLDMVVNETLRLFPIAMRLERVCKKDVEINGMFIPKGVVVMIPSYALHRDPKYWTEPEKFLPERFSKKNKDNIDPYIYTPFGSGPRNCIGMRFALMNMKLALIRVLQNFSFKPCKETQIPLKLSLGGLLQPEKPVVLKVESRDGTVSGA

SMILES: COc1cccc(/C=N/N(C(=O)C(F)(F)F)c2ccc(C)cc2C)c1 [J147, (E)-N-(2,4-dimethylphenyl)-2,2,2-trifluoro-N'-(3methoxybenzyli-dene) acetohydrazide]
- CYP450 3A4 assays (CYP450 inhibition) [1]: negative
- loss of synaptic proteins and cognitive decline ([2]; administered to three-month-old APP/swePS1ΔE9 mice for seven months): prevents the loss of synaptic proteins and cognitive decline
- levels of BDNF in the hippocampus ([2]; huAPP/PS1 transgenic mice): increases the levels of BDNF
- spatial navigational memory (escape latency, hidden platform Day 2) [3]: significantly improved the spatial navigational memory
- acute toxicity [4]: no oral toxicity; also recorded: negative results
- spatial memory (time to find hidden platform) [5]: rescued this deficit in spatial memory
- Fold change: J147 (1 hr) vs Control, Egr1 mRNA [6]: 2.5 fold
- Fold change: J147 (1 hr) vs Control, Egr3 mRNA [6]: 8 fold and 8.0 fold
- Fold change: J147 (1 hr) vs Control, Ngf mRNA [6]: 2.8 fold
- Fold change: J147 (1 hr) vs Control, No title (chr8:13161324 to 13161817) [6]: 2.6 fold
- Fold change: J147 (1 hr) vs Control, Spred2 mRNA [6]: 2.7 fold
- mouse body weights and food consumption [7]: no significant differences between the groups
